Where two headings read alike, the source gives them in different places.
Assays:
[1] = Intracellular concentration of non-natural amino acids (cellular uptake); format: in vitro ADME
Description: Non-natural amino acid uptake by a eukaryotic cell is one issue that is typically considered when designing and selecting non-natural amino acids, including but not limited to, for incorporation into a protein. […] Natural amino acids are taken up into the eukaryotic cell via a collection of protein-based transport systems. A rapid screen can be done which assesses which non-natural amino acids, if any, are taken up by cells (examples 15 & 16 herein illustrate non-limiting examples of tests which can be done on non-natural amino acids). See, e.g., the toxicity assays in, e.g., the U.S. Patent Publication No. 2004/198637 entitled “Protein Arrays,” which is herein incorporated by reference in its entirety, and Liu, D. R. & Schultz, P. G. (1999) Progress toward the evolution of an organism with an expanded genetic code. PNAS United States 96:4780-4785. Although uptake is easily analyzed with various assays, an alternative to designing non-natural amino acids that are amenable to cellular uptake pathways is to provide biosynthetic pathways to create amino acids in vivo.
(§1) This example provides results of four tests that were conducted on certain illustrative non-natural amino acids as an aid for predicting their properties for incorporation into non-natural amino acid polypeptides.

[2] = tested on: aminoacyl-tRNA synthetase (RS); experiment: RS test
Protocol: as §1

[3] = Pharmacodynamic studies, bodyweight gain in hypophysectomized rats; format: in vivo, Hypophysectomized male Sprague-Dawley rats; conditions: s.c., compared with 30 KPEG-pAF92(his)hGH, p<0.0005
Protocol: Hypophysectomized male Sprague-Dawley rats were obtained from Charles River Laboratories. Pituitaries were surgically removed at 3-4 weeks of age. Animals were allowed to acclimate for a period of three weeks, during which time bodyweight was monitored. Animals with a bodyweight gain of 0-8 g over a period of seven days before the start of the study were included and randomized to treatment groups. Rats were administered either a bolus dose or daily dose subcutaneously. Throughout the study rats were daily and sequentially weighed, anesthetized, bled, and dosed (when applicable). Blood was collected from the orbital sinus using a heparinized capillary tube and placed into an EDTA coated microfuge tube. Plasma was isolated by centrifugation and stored at −80° C. until analysis. The mean (+/−S.D.) plasma concentrations were plotted versus time intervals.
The peptide IGF-1 is a member of the family of somatomedins or insulin-like growth factors. IGF-1 mediates many of the growth-promoting effects of growth hormone. IGF-1 concentrations were measured using a competitive binding enzyme immunoassay kit against the provided rat/mouse IGF-1 standards (Diagnostic Systems Laboratories). Hypophysectomized rats. Rats (n=5-7 per group) were given either a single dose or daily dose subcutaneously. Animals were sequentially weighed, anesthetized, bled, and dosed (when applicable) daily.

[4] = Pharmacokinetic studies, single s.c. dose in rats, plasma growth hormone ELISA; format: in vivo; conditions: single-dose 1 mg/kg bolus s.c., normal male Sprague-Dawley rats; average (+/- standard deviation)
Protocol: Pharmacokinetic properties of PEG-modified growth hormone compounds were compared to each other and to nonPEGylated growth hormone in male Sprague-Dawley rats (261-425 g) obtained from Charles River Laboratories. Catheters were surgically installed into the carotid artery for blood collection. Following successful catheter installation, animals were assigned to treatment groups (three to six per group) prior to dosing. Animals were dosed subcutaneously with 1 mg/kg of compound in a dose volume of 0.41-0.55 ml/kg. Blood samples were collected at various time points via the indwelling catheter and into EDTA-coated microfuge tubes. Plasma was collected after centrifugation, and stored at −80° C. until analysis. Compound concentrations were measured using antibody sandwich growth hormone ELISA kits from either BioSource International (Camarillo, Calif.) or Diagnostic Systems Laboratories (Webster, Tex.). Concentrations were calculated using standards corresponding to the analog that was dosed. Pharmacokinetic parameters were estimated using the modeling program WinNonlin (Pharsight, version 4.1). Noncompartmental analysis with linear-up/log-down trapezoidal integration was used, and concentration data was uniformly weighted.
Plasma concentrations were obtained at regular intervals following a single subcutaneous dose in rats. […] Plasma samples were taken over the regular time intervals and assayed for injected compound as described. […] Concentration vs time curves were evaluated by noncompartmental analysis (Pharsight, version 4.1). Values shown are averages (+/−standard deviation). Cmax: maximum concentration; terminal t1/2: terminal half-life; AUC0->inf: area under the concentration-time curve extrapolated to infinity; MRT: mean residence time; Cl/f: apparent total, plasma clearance; Vz/f: apparent volume of distribution during terminal phase.

Oxime stability pH 4-8 = format: physicochemical
Protocol: as §1

CC(=O)COc1ccc(C[C@H](N)C(=O)O)cc1
Intracellular Concentration [1]: 1000 to 1800 µM

CC(C)=NOCOc1ccc(C[C@H](N)C(=O)O)cc1
Intracellular Concentration [1]: 60 µM

CC(=O)C(F)(F)c1ccc(C[C@H](N)C(=O)O)cc1
Intracellular Concentration [1]: 279 µM

CC(=O)c1ccc(C[C@H](N)C(=O)O)cc1
Intracellular Concentration [1]: 600 µM
RS test [2]: ✓

CC(=O)C(=O)c1ccc(C[C@H](N)C(=O)O)cc1
Intracellular Concentration ([1]; remark in words): Reduced [M + 2]

CC(=O)CNC(=O)c1ccc(C[C@H](N)C(=O)O)cc1
Intracellular Concentration [1]: 628 µM
Intracellular Concentration ([1]; remark in words): little reduced

CC(C)=NOCc1ccc(C[C@H](N)C(=O)O)cc1
Intracellular Concentration [1]: 300 µM

30KPEG-pAF35(his)hGH: "hGH polypeptides comprising p-acetyl-phenylalanine covalently-linked to 30 kDa PEG at positions 35 and 92"
bodyweight gain at day 9 [3]: greater weight gain
AUC0->inf [4]: 39,918 (±22,683) ng × hr/ml
Cl/f [4]: 35 (±27) ml/hr/kg
Cmax [4]: 1,885 (±1,011) ng/ml
MRT [4]: 19.16 (±4.00) h
Terminal t1/2 [4]: 4.85 (±0.80) h

N[C@@H](Cc1ccc2c(c1)NC(=O)C2=O)C(=O)O
Oxime Stability pH 4-8 (Oxime stability pH 4-8): − −

CC(=O)CC(=O)c1ccc(C[C@H](N)C(=O)O)cc1
RS test [2]: Meta- bolized

CC(=O)N/N=C/c1ccc(C[C@H](N)C(=O)O)cc1
Intracellular Concentration [1]: 30 µM
RS test [2]: ✓

CC(=O)C(=O)Nc1ccc(C[C@H](N)C(=O)O)cc1
Intracellular Concentration [1]: 376 µM

— patent US8008456B2, “Compositions containing, methods involving, and uses of non-natural amino acids and polypeptides” (Ambrx, Inc., priority 2004, dated 2011)
